Reference: ChEMBL document CHEMBL4295262, “Evaluation of the utility of stem-cell derived cardiomyocytes for drug proarrhythmic potential” (2019)

Tests used:
Details in all cases: human, ipsc-cm
[1] = (§1) Electrical activity assay on cell lines treated with a given drug. DMSO was used as a vehicle and a control, unblinded dofetilide was used as a control.
[2] = as §1; format: ADME, cell-based
[3] = as §1; format: ADME, cell-based; remark: listed apart in the source
[4] = as §1; format: ADME, cell-based; design: FPDc: unit not given here
[5] = as §1; remark: listed apart in the source
[6] = as §1; remark: listed apart in the source
[7] = 0.1 µM, concentration (um) 0.1 uM
[8] = 10 µM, concentration (um) 10 uM
[9] = 100 µM, concentration (um) 100 uM
[10] = 0.09507 µM, concentration (um) 0.0950736 uM
[11] = 0.3004 µM, concentration (um) 0.300433 uM
[12] = 0.9494 µM, concentration (um) 0.949367 uM
[13] = 0.03 µM, concentration (um) 0.03 uM
[14] = 0.01 µM, concentration (um) 0.01 uM

## COc1ccccc1OCC(O)CN1CCN(CC(=O)Nc2c(C)cccc2C)CC1 (centres undefined) [RANOLAZINE]
[1]; 0.1 µM
  APDc: 65.99
  FPD measurement: 65.99 FPDc
[1]; 1 µM
  APDc: 53.66
  FPD measurement: 53.66 FPDc
[1]; 10 µM
  APDc: 57.23
  FPD measurement: 57.23 FPDc
[1]; 100 µM
  APDc: 60.49
  FPD measurement: 60.49 FPDc
[2]; [7]
  FPD measurement: 51.73 FPDc
  FPDc: 6 Values Out Of 6 Were Excluded Due To Quiescence Or 0 Fpdc
[2]; 1 µM, concentration (um) 1 uM
  FPD measurement: 54.52 FPDc
  FPDc: 6 Values Out Of 6 Were Excluded Due To Quiescence Or 0 Fpdc
[2]; [8]
  FPD measurement: 75.35 FPDc
  FPDc: 6 Values Out Of 6 Were Excluded Due To Quiescence Or 0 Fpdc
[2]; [9]
  FPDc: 6 Values Out Of 6 Were Excluded Due To Quiescence Or 0 Fpdc
[3]; [7]
  FPD measurement: 5 Values Out Of 5 Were Excluded Due To Quiescence Or 0 Apdc
  FPDc: 23.9
[3]; 1 µM, concentration (um) 1 uM
  FPD measurement: 5 Values Out Of 5 Were Excluded Due To Quiescence Or 0 Apdc
  FPDc: 22.6
[3]; [8]
  FPD measurement: 5 Values Out Of 5 Were Excluded Due To Quiescence Or 0 Apdc
  FPDc: 23.41
[3]; [9]
  FPD measurement: More Than Half The Wells Had A Quiescence Event Or Apdc Readings Of 0
  FPDc: More Than Half The Wells Had A Quiescence Event Or Fpdc Readings Of 0
[4]; [7]
  FPDc: 63.44
[4]; 1 µM, concentration (um) 1 uM
  FPD measurement: 5 Values Out Of 5 Were Excluded Due To Quiescence Or 0 Apdc
  FPDc: 57.19
[4]; [8]
  FPDc: 48.79
[4]; [9]
  FPDc: 47.75

## CC/C(=C(\c1ccccc1)c1ccc(OCCN(C)C)cc1)c1ccccc1 [TAMOXIFEN]
[2]; [10]
  FPD measurement: 46.23 FPDc
  FPDc: 6 Values Out Of 6 Were Excluded Due To Quiescence Or 0 Fpdc
[2]; [11]
  FPD measurement: 47.89 FPDc
  FPDc: 6 Values Out Of 6 Were Excluded Due To Quiescence Or 0 Fpdc
[2]; [12]
  FPD measurement: 110.7 FPDc
  FPDc: 6 Values Out Of 6 Were Excluded Due To Quiescence Or 0 Fpdc
[2]; 3 µM, concentration (um) 3 uM
  FPDc: 6 Values Out Of 6 Were Excluded Due To Quiescence Or 0 Fpdc
[3]; [10]
  FPD measurement: 5 Values Out Of 5 Were Excluded Due To Quiescence Or 0 Apdc
  FPDc: 19.16
[3]; [11]
  FPD measurement: 5 Values Out Of 5 Were Excluded Due To Quiescence Or 0 Apdc
  FPDc: 19.98
[3]; [12]
  FPD measurement: 5 Values Out Of 5 Were Excluded Due To Quiescence Or 0 Apdc
  FPDc: 19.22
[3]; 3 µM, concentration (um) 3 uM
  FPD measurement: 5 Values Out Of 5 Were Excluded Due To Quiescence Or 0 Apdc
  FPDc: 16.9
[4]; [10]
  FPD measurement: 5 Values Out Of 5 Were Excluded Due To Quiescence Or 0 Apdc
  FPDc: 53.17
[4]; [11]
  FPD measurement: 5 Values Out Of 5 Were Excluded Due To Quiescence Or 0 Apdc
  FPDc: 49.96
[4]; [12]
  FPD measurement: 5 Values Out Of 5 Were Excluded Due To Quiescence Or 0 Apdc
  FPDc: 53.33
[4]; 3 µM, concentration (um) 3 uM
  FPD measurement: 5 Values Out Of 5 Were Excluded Due To Quiescence Or 0 Apdc
  FPDc: 51.88

## Cc1nccn1CC1CCc2c(c3ccccc3n2C)C1=O (centres undefined) [ONDANSETRON]
[5]; 0.03 µM
  FPD measurement: 1 Values Out Of 1 Were Excluded Due To Quiescence Or 0 Fpdc
  FPDc: 1 Values Out Of 1 Were Excluded Due To Quiescence Or 0 Fpdc
[5]; 0.3 µM
  FPD measurement: 1 Values Out Of 1 Were Excluded Due To Quiescence Or 0 Fpdc
  FPDc: 1 Values Out Of 1 Were Excluded Due To Quiescence Or 0 Fpdc
[5]; 3 µM
  FPD measurement: 1 Values Out Of 1 Were Excluded Due To Quiescence Or 0 Fpdc
  FPDc: 1 Values Out Of 1 Were Excluded Due To Quiescence Or 0 Fpdc
[5]; 30 µM
  FPD measurement: 1 Values Out Of 1 Were Excluded Due To Quiescence Or 0 Fpdc
  FPDc: 1 Values Out Of 1 Were Excluded Due To Quiescence Or 0 Fpdc
[6]; 0.03 µM
  FPD measurement: 54.59 FPDc
  FPDc: 54.59
[6]; 0.3 µM
  FPD measurement: 58.58 FPDc
  FPDc: 58.58
[6]; 3 µM
  FPD measurement: 68.22 FPDc
  FPDc: 68.22
[6]; 30 µM
  FPD measurement: More Than Half The Wells Had A Quiescence Event Or Fpdc Readings Of 0
  FPDc: More Than Half The Wells Had A Quiescence Event Or Fpdc Readings Of 0
[4]; [13]
  FPD measurement: 5 Values Out Of 5 Were Excluded Due To Quiescence Or 0 Apdc
  FPDc: 29.28
[4]; 0.3 µM, concentration (um) 0.3 uM
  FPDc: 58.03
[4]; 3 µM, concentration (um) 3 uM
  FPDc: 37.01
[4]; 30 µM, concentration (um) 30 uM
  FPDc: 17.75

## COc1cc2c(Nc3ccc(Br)cc3F)ncnc2cc1OCC1CCN(C)CC1 [VANDETANIB]
[1]; 0.01 µM
  APDc: 51.06
  FPD measurement: 51.06 FPDc
[1]; 0.1 µM
  APDc: 61.45
  FPD measurement: 61.45 FPDc
[1]; 1 µM
  APDc: 63.98
  FPD measurement: 63.98 FPDc
[1]; 10 µM
  APDc: 78.14
  FPD measurement: 78.14 FPDc
[2]; [14]
  FPD measurement: 50.93 FPDc
  FPDc: 6 Values Out Of 6 Were Excluded Due To Quiescence Or 0 Fpdc
[2]; [7]
  FPD measurement: 55.37 FPDc
  FPDc: 6 Values Out Of 6 Were Excluded Due To Quiescence Or 0 Fpdc
[2]; 1 µM, concentration (um) 1 uM
  FPD measurement: 118.9 FPDc
  FPDc: 6 Values Out Of 6 Were Excluded Due To Quiescence Or 0 Fpdc
[2]; [8]
  FPDc: 6 Values Out Of 6 Were Excluded Due To Quiescence Or 0 Fpdc
[3]; [14]
  FPD measurement: 5 Values Out Of 5 Were Excluded Due To Quiescence Or 0 Apdc
  FPDc: 21.62
[3]; [7]
  FPD measurement: 5 Values Out Of 5 Were Excluded Due To Quiescence Or 0 Apdc
  FPDc: 20.73
[3]; 1 µM, concentration (um) 1 uM
  FPD measurement: 5 Values Out Of 5 Were Excluded Due To Quiescence Or 0 Apdc
  FPDc: 22.97
[3]; [8]
  FPD measurement: 5 Values Out Of 5 Were Excluded Due To Quiescence Or 0 Apdc
  FPDc: 5 Values Out Of 5 Were Excluded Due To Quiescence Or 0 Fpdc
[4]; [14]
  FPD measurement: 5 Values Out Of 5 Were Excluded Due To Quiescence Or 0 Apdc
  FPDc: 55.57
[4]; [7]
  FPD measurement: 5 Values Out Of 5 Were Excluded Due To Quiescence Or 0 Apdc
  FPDc: 48.34
[4]; 1 µM, concentration (um) 1 uM
  FPD measurement: 5 Values Out Of 5 Were Excluded Due To Quiescence Or 0 Apdc
  FPDc: 57.73
[4]; [8]
  FPD measurement: 5 Values Out Of 5 Were Excluded Due To Quiescence Or 0 Apdc
  FPDc: 73.71

## CC(C)NCC(O)c1ccc(NS(C)(=O)=O)cc1 (centres undefined) [SOTALOL]
[1]; 0.1 µM
  APDc: 62.02
  FPD measurement: 62.02 FPDc
[1]; 1 µM
  APDc: 63.35
  FPD measurement: 63.35 FPDc
[1]; 10 µM
  APDc: 71.54
  FPD measurement: 71.54 FPDc
[1]; 100 µM
  APDc: 79.39
  FPD measurement: 79.39 FPDc
[2]; [7]
  FPD measurement: 50.96 FPDc
  FPDc: 6 Values Out Of 6 Were Excluded Due To Quiescence Or 0 Fpdc
[2]; 1 µM, concentration (um) 1 uM
  FPD measurement: 54.95 FPDc
  FPDc: 6 Values Out Of 6 Were Excluded Due To Quiescence Or 0 Fpdc
[2]; [8]
  FPD measurement: 164 FPDc
  FPDc: 6 Values Out Of 6 Were Excluded Due To Quiescence Or 0 Fpdc
[2]; [9]
  FPDc: 6 Values Out Of 6 Were Excluded Due To Quiescence Or 0 Fpdc
[3]; [7]
  FPD measurement: 5 Values Out Of 5 Were Excluded Due To Quiescence Or 0 Apdc
  FPDc: 22.36
[3]; 1 µM, concentration (um) 1 uM
  FPD measurement: 5 Values Out Of 5 Were Excluded Due To Quiescence Or 0 Apdc
  FPDc: 20.88
[3]; [8]
  FPD measurement: 5 Values Out Of 5 Were Excluded Due To Quiescence Or 0 Apdc
  FPDc: 24.73
[3]; [9]
  FPD measurement: More Than Half The Wells Had A Quiescence Event Or Apdc Readings Of 0
  FPDc: More Than Half The Wells Had A Quiescence Event Or Fpdc Readings Of 0
[4]; [7]
  FPD measurement: 5 Values Out Of 5 Were Excluded Due To Quiescence Or 0 Apdc
  FPDc: 44.43
[4]; 1 µM, concentration (um) 1 uM
  FPD measurement: 5 Values Out Of 5 Were Excluded Due To Quiescence Or 0 Apdc
  FPDc: 41.07
[4]; [8]
  FPD measurement: 5 Values Out Of 5 Were Excluded Due To Quiescence Or 0 Apdc
  FPDc: 57.04
[4]; [9]
  FPD measurement: 5 Values Out Of 5 Were Excluded Due To Quiescence Or 0 Apdc
  FPDc: 45.01
